The target in the test is T1, human P2X4 (Homo sapiens, UniProt Q99571).
T1 sequence (Q99571 1-388): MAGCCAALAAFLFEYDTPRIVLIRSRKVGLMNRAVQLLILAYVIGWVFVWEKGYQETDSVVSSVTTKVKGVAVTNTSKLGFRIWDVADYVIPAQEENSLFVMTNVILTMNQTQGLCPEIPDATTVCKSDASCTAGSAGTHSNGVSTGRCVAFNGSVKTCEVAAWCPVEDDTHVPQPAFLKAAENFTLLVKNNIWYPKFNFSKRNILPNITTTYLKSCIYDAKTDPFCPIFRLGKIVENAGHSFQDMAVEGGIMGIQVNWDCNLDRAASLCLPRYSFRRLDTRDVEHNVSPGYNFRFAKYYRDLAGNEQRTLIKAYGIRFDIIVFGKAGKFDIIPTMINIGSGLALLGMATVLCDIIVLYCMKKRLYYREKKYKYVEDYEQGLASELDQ
In words: Human P2X4 HEK Cell FLIPR Assay. The format is cell-based. To be noted: agonist Bz-ATP at EC80; for Emax: HEK293, HEK293 cells, percentage of maximal inhibition, read-out: Human P2X4 HEK Cells (FLIPR Assay) avg Efficacy [%]; for IC50: HEK293 cells, individual values listed where some fall outside detection range. The protocol: HEK293 cells stably expressing human P2X4 were plated in poly-D-lysine-coated 384-well plates at a seeding density of 30000 cells/well and incubated overnight. P2X4 function was assessed by measuring intracellular calcium changes using the calcium-chelating dye Fluo8-AM (Molecular Devices) on a fluorescent imaging plate reader (FLEX/FLIPR station; Molecular Devices). On the day of the assay, the medium was removed and the cells were incubated for 30 min at 37° C. and 5% CO2 in 30 μL of dye buffer (Hank's balanced salt solution, 10 mM HEPES, 1.8 mM CaCl2, 1 mM MgCl2, 2 mM probenecid, 5 mM D-glucose monohydrate, 5 μM Fluo8-AM, pH=7.4). Compounds diluted in probenecid buffer (Hank's balanced salt solution, 10 mM HEPES, 1.8 mM CaCl2, 1 mM MgCl2, 2 mM probenecid, 5 mM D-glucose monohydrate, pH=7.4) were added in a volume of 10 μL and allowed to incubate for 30 min at room temperature. The final assay DMSO concentration was 0.5%. The agonist, Bz-ATP (Tocris), was added in a volume of 10 μL at a concentration representing the EC80 value. The EC80 value of Bz-ATP was determined each assay day prior to compound profiling. The fluorescence was measured for an interval of 120 sec at 2 sec intervals. The excitation and emission wavelengths used to monitor fluorescence were 470-495 nm and 515-575 nm, respectively. The data was analyzed based on the increase in peak relative fluorescence units (RFU) compared to the basal fluorescence and the data was normalized to the agonist control. The compounds were tested in triplicates per plate and mean values were plotted in Excel XLFit to determine IC50 values, percentage of maximal inhibition and the Hill coefficients.

The IC50 is the concentration that gives 50% inhibition. In the case of `NS(=O)(=O)c1cc(NC(=O)Cc2ccccc2F)ccc1-n1cnc(C(F)(F)F)n1` [Example 54, 2-(2-Fluorophenyl)-N-{3-sulfamoyl-4-[3-(trifluoromethyl)-1H-1,2,4-triazol-1-yl]phenyl}acetamide], the Emax worked out at 75% and the IC50 was determined as 557 nM.
`NS(=O)(=O)c1cc(NC(=O)Cc2cccc(F)c2)ccc1-n1cnc(C(F)(F)F)n1` [Example 55, 2-(3-Fluorophenyl)-N-{3-sulfamoyl-4-[3-(trifluoromethyl)-1H-1,2,4-triazol-1-yl]-phenyl}acetamide]: the Emax stood at 74% and the IC50 was found to be 1400 nM.
In the same order, the values of `NS(=O)(=O)c1cc(NC(=O)Cc2ccc(F)cc2Cl)ccc1-n1cnc(C(F)(F)F)n1` [Example 56, 2-(2-Chloro-4-fluorophenyl)-N-{3-sulfamoyl-4-[3-(trifluoromethyl)-1H-1,2,4-triazol-1-yl]phenyl}acetamide] are 70% and 121 nM.
For `NS(=O)(=O)c1cc(NC(=O)Cc2ccccc2OC(F)F)ccc1-n1cnc(C(F)(F)F)n1` [Example 57, 2-[2-(Difluoromethoxy)phenyl]-N-{3-sulfamoyl-4-[3-(trifluoromethyl)-1H-1,2,4-triazol-1-yl]phenyl}acetamide], in that order: 71% and 141 nM.
In the same order, the values of `NS(=O)(=O)c1cc(NC(=O)Cc2cc(F)ccc2Cl)ccc1-n1cnc(C(F)(F)F)n1` [Example 58, 2-(2-Chloro-5-fluorophenyl)-N-{3-sulfamoyl-4-[3-(trifluoromethyl)-1H-1,2,4-triazol-1-yl]phenyl}acetamide] are 54% and 73 nM.
For `NS(=O)(=O)c1cc(NC(=O)Cc2ccncc2Cl)ccc1-n1cnc(C(F)(F)F)n1` [Example 59, 2-(3-Chloropyridin-4-yl)-N-{3-sulfamoyl-4-[3-(trifluoromethyl)-1H-1,2,4-triazol-1-yl]phenyl}acetamide], the Emax is 73% and the IC50 came out at 4650 nM.
For `NS(=O)(=O)c1cc(NC(=O)Cc2ccc(C(F)F)cc2)ccc1-n1cnc(C(F)(F)F)n1` [Example 60, 2-[4-(Difluoromethyl)phenyl]-N-{3-sulfamoyl-4-[3-(trifluoromethyl)-1H-1,2,4-triazol-1-yl]phenyl}acetamide], the Emax worked out at 80% and the IC50 was determined as 917 nM.
As for `NS(=O)(=O)c1cc(NC(=O)C(F)(F)c2ccccc2Cl)ccc1-n1cnc(C(F)(F)F)n1` [Example 61, 2-(2-Chlorophenyl)-2,2-difluoro-N-{3-sulfamoyl-4-[3-(trifluoromethyl)-1H-1,2,4-triazol-1-yl]phenyl}acetamide], the Emax stood at 79% and the IC50 was 400 nM.
In the same order, the values of `NS(=O)(=O)c1cc(NC(=O)C(F)(F)c2ccccc2Cl)ccc1-n1cc(Br)cn1` [Example 62, N-[4-(4-Bromo-1H-pyrazol-1-yl)-3-sulfamoylphenyl]-2-(2-chlorophenyl)-2,2-difluoroacetamide] are 94% and 249 nM.
For `NS(=O)(=O)c1cc(NC(=O)Cc2ccccc2F)ccc1-n1cc(Br)cn1` [Example 63, N-[4-(4-Bromo-1H-pyrazol-1-yl)-3-sulfamoylphenyl]-2-(2-fluorophenyl)acetamide], in that order: 87% and 130 nM.
In the same order, the values of `NS(=O)(=O)c1cc(NC(=O)Cc2ccccc2C(F)(F)F)ccc1-n1cc(Br)cn1` [Example 64, N-[4-(4-Bromo-1H-pyrazol-1-yl)-3-sulfamoylphenyl]-2-[2-(trifluoromethyl)-phenyl]acetamide] are 83% and 104 nM.
On to `NS(=O)(=O)c1cc(NC(=O)Cc2cccc(F)c2)ccc1-n1cc(Br)cn1` [Example 65, N-[4-(4-Bromo-1H-pyrazol-1-yl)-3-sulfamoylphenyl]-2-(3-fluorophenyl)acetamide], for which the Emax was 62% and the half-maximal inhibitory concentration (IC50) worked out at 355 nM.
In the same order, the values of `Cc1ccccc1CC(=O)Nc1ccc(-n2cc(Br)cn2)c(S(N)(=O)=O)c1` [Example 66, N-[4-(4-Bromo-1H-pyrazol-1-yl)-3-sulfamoylphenyl]-2-(2-methylphenyl)acetamide] are 90% and 86 nM.
For `NS(=O)(=O)c1cc(NC(=O)Cc2cccnc2Cl)ccc1-n1cc(Br)cn1` [Example 67, N-[4-(4-Bromo-1H-pyrazol-1-yl)-3-sulfamoylphenyl]-2-(2-chloropyridin-3-yl)-acetamide], in that order: 98% and 1510 nM.
For `NS(=O)(=O)c1cc(NC(=O)Cc2ccc(F)cc2Cl)ccc1-n1cc(Br)cn1` [Example 68, N-[4-(4-Bromo-1H-pyrazol-1-yl)-3-sulfamoylphenyl]-2-(2-chloro-4-fluorophenyl)-acetamide], in that order: 75% and 128 nM.
In the case of `NS(=O)(=O)c1cc(NC(=O)Cc2ccccc2OC(F)F)ccc1-n1cc(Br)cn1` [Example 69, N-[4-(4-Bromo-1H-pyrazol-1-yl)-3-sulfamoylphenyl]-2-[2-(difluoromethoxy)-phenyl]acetamide], the Emax came to 80% and the IC50 was determined as 210 nM.
In the same order, the values of `NS(=O)(=O)c1cc(NC(=O)Cc2ccccc2OC(F)(F)F)ccc1-n1cc(Br)cn1` [Example 70, N-[4-(4-Bromo-1H-pyrazol-1-yl)-3-sulfamoylphenyl]-2-[2-(trifluoromethoxy)-phenyl]acetamide] are 85% and 118 nM.
Take `NS(=O)(=O)c1cc(NC(=O)Cc2cc(F)c(F)cc2Cl)ccc1-n1cc(Br)cn1` [Example 71, N-[4-(4-Bromo-1H-pyrazol-1-yl)-3-sulfamoylphenyl]-2-(2-chloro-4,5-difluorophenyl)-acetamide]: the Emax is 80% and the IC50 was 132 nM.
For `NS(=O)(=O)c1cc(NC(=O)Cc2ccncc2Cl)ccc1-n1cc(Br)cn1` [Example 72, N-[4-(4-Bromo-1H-pyrazol-1-yl)-3-sulfamoylphenyl]-2-(3-chloropyridin-4-yl)acetamide], in that order: 96% and 576 nM.
For `NS(=O)(=O)c1cc(NC(=O)Cc2ccc(C(F)F)cc2)ccc1-n1cc(Br)cn1` [Example 73, N-[4-(4-Bromo-1H-pyrazol-1-yl)-3-sulfamoylphenyl]-2-[4-(difluoromethyl)-phenyl]acetamide], in that order: 52% and 168 nM.
In the same order, the values of `NS(=O)(=O)c1cc(NC(=O)Cc2ccccc2Br)ccc1-n1cc(Cl)cn1` [Example 74, 2-(2-Bromophenyl)-N-[4-(4-chloro-1H-pyrazol-1-yl)-3-sulfamoylphenyl]acetamide] are 84% and 49 nM.
As to `COc1ccccc1CC(=O)Nc1ccc(-n2cc(Cl)cn2)c(S(N)(=O)=O)c1` [Example 75, N-[4-(4-Chloro-1H-pyrazol-1-yl)-3-sulfamoylphenyl]-2-(2-methoxyphenyl)acetamide], the Emax stood at 87% and the IC50 came to 213 nM.
For `NS(=O)(=O)c1cc(NC(=O)Cc2ccc(Cl)cc2)ccc1-n1cc(Cl)cn1` [Example 76, 2-(4-Chlorophenyl)-N-[4-(4-chloro-1H-pyrazol-1-yl)-3-sulfamoylphenyl]acetamide], in that order: 34% and more than 25000 nM.
In the same order, the values of `NS(=O)(=O)c1cc(NC(=O)Cc2c(F)cccc2Cl)ccc1-n1cc(Cl)cn1` [Example 77, 2-(2-Chloro-6-fluorophenyl)-N-[4-(4-chloro-1H-pyrazol-1-yl)-3-sulfamoylphenyl]-acetamide] are 82% and 71 nM.
In the same order, the values of `NS(=O)(=O)c1cc(NC(=O)Cc2ccccc2[N+](=O)[O-])ccc1-n1cc(Cl)cn1` [Example 78, N-[4-(4-Chloro-1H-pyrazol-1-yl)-3-sulfamoylphenyl]-2-(2-nitrophenyl)acetamide] are 97% and 517 nM.
Turning to `NS(=O)(=O)c1cc(NC(=O)Cc2ccc(Cl)cc2Cl)ccc1-n1cc(Cl)cn1` [Example 79, N-[4-(4-Chloro-1H-pyrazol-1-yl)-3-sulfamoylphenyl]-2-(2,4-dichlorophenyl)acetamide], the Emax was found to be 78% and the concentration for half-maximal inhibition (IC50) turned out to be 2030 nM.

The values above are taken from patent US11524938B2, “Aromatic sulfonamide derivatives” (Bayer Pharma Aktiengesellschaft, priority 2016, dated 2022).
